Reference: patent US10215749B2, “Ported parallel plate flow chamber and methods for use thereof” (priority 2013, dated 2019)

Test system: Human Aortic Endothelial Cells
Experiment: Gene expression differences (Affymetrix PRIMEVIEW microarray) under shear stress conditions with PI-103 treatment in a flow chamber
Type: cell-based
Procedure: Cells were cultured on a collagen I-coated growth surface under static conditions (no flow) until confluency was reached. Cells were then either exposed to fluid flow in a flow chamber at 0.2 or 1.0 Pa for 20 hours, or left in static culture for the same amount of time. At 20 hours, RNA was isolated from the cells using an Ambion MIRVANA™ RNA isolation kit (Life Technologies, Foster City Calif., United States of America) and processed for analysis on Affymetrix PRIMEVIEW™ arrays (Affymetrix, Inc., Santa Clara, Calif., United States of America). Three experiments were performed for each condition, providing replicates for microarray analysis.
Gene expression differences in Human Aortic Endothelial Cells were also tested under different shear stress conditions, using a flow chamber device, in the presence or absence of the PI3K/Akt and mTOR inhibitor PI-103 (3-[4-(4-morpholinyl)pyrido[3′,2′:4,5]furo[3,2-d]pyrimidin-2-yl]-phenol); CAS No. 371935-74-9) at a concentration of 100 nM.
Cells were grown on a collagen-I coated growth surface and treated with 100 nM PI-103 in the presence of flow. For the 4 hour time point, cells were exposed to fluid flow for 16 hours and treated with PI-103 for the last 4 hours in the presence of flow. Cells were also treated with PI-103 for the entire duration of flow (20 hours). Data was generated using RNA extracted as described in Example 1, and analyzed on Affymetrix PRIMEVIEW™ arrays (Affymetrix, Inc.,). Three experiments were performed for each condition, providing replicates for microarray analysis.

SMILES: Oc1cccc(-c2nc(N3CCOCC3)c3oc4ncccc4c3n2)c1 [PI-103, 3-[4-(4-morpholinyl)pyrido[3′,2′:4,5]furo[3,2-d]pyrimidin-2-yl]-phenol]
- No. of Genes Changed (0.2 Pa shear stress, 100 nM PI-103, 4 hr drug exposure, vs non-treated cells under same flow): 830
- No. of Genes Changed (0.2 Pa shear stress, 100 nM PI-103, 20 hr drug exposure, vs non-treated cells under same flow): 113
- No. of Genes Changed (1.0 Pa shear stress, 100 nM PI-103, 4 hr drug exposure, vs non-treated cells under same flow): 1563
- No. of Genes Changed (1.0 Pa shear stress, 100 nM PI-103, 20 hr drug exposure, vs non-treated cells under same flow): 119
- No. of Genes Changed (No Shear (static), 100 nM PI-103, 4 hr drug exposure, vs non-treated cells under same condition): 130
- No. of Genes Changed (No Shear (static), 100 nM PI-103, 20 hr drug exposure, vs non-treated cells under same condition): 159
